Experiments:
Format in all cases: in vivo
[1] = tested on: wheat (Triticum aestivum); experiment: Test A pre-/postemergence plant response
Summary of the method: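 Seeds sown in loam–sand blend; test chemicals in non-phytotoxic solvent with surfactant applied preemergence as directed soil spray and, concurrently, postemergence to plants 2–10 cm tall at one- to two-leaf stage. Greenhouse ~10 days, then visual injury rating vs untreated controls on 0–100 scale (0 = no effect, 100 = complete control).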

[2] = tested on: cocklebur (Xanthium strumarium); experiment: Test B pre-/postemergence plant response
Description: (§1) Seeds of plant species selected from blackgrass (Alopecurus myosuroides), downy bromegrass (Bromus tectorum), green foxtail (Setaria viridis), Italian ryegrass (Lolium multiflorum), wheat (Triticum aestivum), wild oat (Avena fatua), catchweed bedstraw (Galium aparine), bermudagrass (Cynodon dactylon), surinam grass (Brachiaria decumbens), cocklebur (Xanthium strumarium), corn (Zea mays), large crabgrass (Digitaria sanguinalis), woolly cupgrass (Eriochloa villosa), giant foxtail (Setaria faberii), goosegrass (Eleusine indica), johnsongrass (Sorghum halepense), kochia (Kochia scoparia), lambsquarters (Chenopodium album), morningglory (Ipomoea coccinea), eastern black (E.B.) nightshade (Solanum ptycanthum), yellow nutsedge (Cyperus esculentus), pigweed (Amaranthus retroflexus), common ragweed (Ambrosia elation), Russian thistle (Salsola iberica), soybean (Glycine max), common (oilseed) sunflower (Helianthus annuus), and velvetleaf (Abutilon theophrasti) were planted and treated preemergence with test chemicals formulated in a non-phytotoxic solvent mixture which included a surfactant.
(§2) At the same time, plants selected from these crop and weed species and also winter barley (Hordeum vulgare), canarygrass (Phalaris minor), chickweed (Stellaria media) and windgrass (Apera spica-venti) were treated with postemergence applications of some of the test chemicals formulated in the same manner. Plants ranged in height from 2 to 18 cm (1- to 4-leaf stage) for postemergence treatments.
(§3) Plant species in the flooded paddy test consisted of rice (Oryza sativa), umbrella sedge (Cyperus difformis), ducksalad (Heteranthera limosa) and barnyardgrass (Echinochloa crus-galli) grown to the 2-leaf stage for testing. At time of treatment, test pots were flooded to 3 cm above the soil surface, treated by application of test compounds directly to the paddy water, and then maintained at that water depth for the duration of the test. Treated plants and controls were maintained in a greenhouse for 13 to 15 days, after which time all species were compared to controls and visually evaluated. Plant response ratings, summarized in Table B, are based on a scale of 0 to 100 where 0 is no effect and 100 is complete control. A dash (-) response means no test result.

[3] = tested on: pigweed (Amaranthus retroflexus); experiment: Test B pre-/postemergence plant response
Description: as §1, §2, §3

soybean (Glycine max) = experiment: Test B pre-/postemergence plant response
Description: as §1, §2, §3

[4] = tested on: common ragweed (Ambrosia elation); experiment: Test B pre-/postemergence plant response
Description: as §1, §2, §3

[5] = tested on: goosegrass (Eleusine indica); experiment: Test B pre-/postemergence plant response
Description: as §1, §2, §3

kochia (Kochia scoparia) = experiment: Test B pre-/postemergence plant response
Description: as §1, §2, §3

[6] = tested on: yellow nutsedge (Cyperus esculentus); experiment: Test B pre-/postemergence plant response
Description: as §1, §2, §3

[7] = tested on: woolly cupgrass (Eriochloa villosa); experiment: Test B pre-/postemergence plant response
Description: as §1, §2, §3

[8] = tested on: Italian ryegrass (Lolium multiflorum); experiment: Test B pre-/postemergence plant response
Description: as §1, §2, §3

[9] = tested on: eastern black (E.B.) nightshade (Solanum ptycanthum); experiment: Test B pre-/postemergence plant response; conditions: Preemergence
Description: as §1, §2, §3

[10] = Postemergence, 125 g ai/ha, 0 to 100 scale, 0 no effect, 100 complete control
[11] = Postemergence, 500 g ai/ha, 0 to 100 scale, 0 no effect, 100 complete control
[12] = Preemergence, 125 g ai/ha, 0 to 100 scale (0 no effect, 100 complete control)
[13] = Preemergence, 500 g ai/ha, 0 to 100 scale (0 no effect, 100 complete control)
[14] = Postemergence, 31 g ai/ha, scale 0 to 100, 0 no effect, 100 complete control
[15] = Postemergence, 62 g ai/ha, scale 0 to 100
[16] = Postemergence, 125 g ai/ha, scale 0 to 100
[17] = Postemergence, 250 g ai/ha, scale 0 to 100
[18] = Preemergence, 31 g ai/ha, 0 to 100 scale, 0 no effect, 100 complete control
[19] = Preemergence, 62 g ai/ha, scale 0 to 100
[20] = Preemergence, 125 g ai/ha, scale 0 to 100
[21] = Preemergence, 250 g ai/ha, scale 0 to 100

Cc1cc(-c2ccc(Br)cc2)nn1-c1c(OC(=O)OC(C)C)cnn(C)c1=O [Compound 6]
Plant response rating, Wheat [1, 10]: 50 | Plant response rating, Wheat [1, 11]: 70 | Plant response rating, Wheat [1, 12]: 80 | Plant response rating, Wheat [1, 13]: 90 | Plant response rating, Cocklebur [2, 14]: 0 | Plant response rating, Cocklebur [2, 15]: 0 | Plant response rating, Cocklebur [2, 16]: 0 | Plant response rating, Cocklebur [2, 17]: 40 | Plant response rating, Cocklebur [2, 18]: 0 | Plant response rating, Cocklebur [2, 19]: 0 | Plant response rating, Cocklebur [2, 20]: 0 | Plant response rating, Cocklebur [2, 21]: 0 | Plant response rating, Pigweed [3, 14]: 0 | Plant response rating, Pigweed [3, 15]: 0 | Plant response rating, Pigweed [3, 16]: 0 | Plant response rating, Pigweed [3, 17]: 40 | Plant response rating, Pigweed [3, 19]: 0 | Plant response rating, Pigweed [3, 20]: 30 | Plant response rating, Pigweed [3, 21]: 60 | Plant response rating, Soybean (soybean (Glycine max); [14]): 0 | Plant response rating, Soybean (soybean (Glycine max); [15]): 60 | Plant response rating, Soybean (soybean (Glycine max); [16]): 75 | Plant response rating, Soybean (soybean (Glycine max); [17]): 90 | Plant response rating, Soybean (soybean (Glycine max); [18]): 0 | Plant response rating, Soybean (soybean (Glycine max); [19]): 0 | Plant response rating, Soybean (soybean (Glycine max); [20]): 40 | Plant response rating, Soybean (soybean (Glycine max); [21]): 70 | Plant response rating, Ragweed [4, 14]: 0 | Plant response rating, Ragweed [4, 15]: 0 | Plant response rating, Ragweed [4, 16]: 0 | Plant response rating, Ragweed [4, 17]: 50 | Plant response rating, Ragweed [4, 18]: 0 | Plant response rating, Ragweed [4, 19]: 0 | Plant response rating, Ragweed [4, 20]: 20 | Plant response rating, Ragweed [4, 21]: 20 | Plant response rating, Goosegrass [5, 14]: 95 | Plant response rating, Goosegrass [5, 15]: 100 | Plant response rating, Goosegrass [5, 16]: 100 | Plant response rating, Goosegrass [5, 17]: 100 | Plant response rating, Goosegrass [5, 18]: 80 | Plant response rating, Goosegrass [5, 19]: 95 | Plant response rating, Goosegrass [5, 20]: 100 | Plant response rating, Goosegrass [5, 21]: 100 | Plant response rating, Kochia (kochia (Kochia scoparia); [14]): 0 | Plant response rating, Kochia (kochia (Kochia scoparia); [15]): 0 | Plant response rating, Kochia (kochia (Kochia scoparia); [16]): 20 | Plant response rating, Kochia (kochia (Kochia scoparia); [17]): 20 | Plant response rating, Kochia (kochia (Kochia scoparia); [18]): 0 | Plant response rating, Kochia (kochia (Kochia scoparia); [19]): 0 | Plant response rating, Kochia (kochia (Kochia scoparia); [20]): 20 | Plant response rating, Kochia (kochia (Kochia scoparia); [21]): 60 | Plant response rating, Nutsedge, Yellow [6, 14]: 0 | Plant response rating, Nutsedge, Yellow [6, 15]: 0 | Plant response rating, Nutsedge, Yellow [6, 16]: 0 | Plant response rating, Nutsedge, Yellow [6, 17]: 0 | Plant response rating, Nutsedge, Yellow [6, 18]: 0 | Plant response rating, Nutsedge, Yellow [6, 19]: 0 | Plant response rating, Nutsedge, Yellow [6, 20]: 0 | Plant response rating, Nutsedge, Yellow [6, 21]: 0 | Plant response rating, Cupgrass, Woolly [7, 14]: 100 | Plant response rating, Cupgrass, Woolly [7, 15]: 100 | Plant response rating, Cupgrass, Woolly [7, 16]: 100 | Plant response rating, Cupgrass, Woolly [7, 17]: 100 | Plant response rating, Cupgrass, Woolly [7, 18]: 85 | Plant response rating, Cupgrass, Woolly [7, 19]: 85 | Plant response rating, Cupgrass, Woolly [7, 20]: 85 | Plant response rating, Cupgrass, Woolly [7, 21]: 85 | Plant response rating, Ryegrass, Italian [8, 14]: 100 | Plant response rating, Ryegrass, Italian [8, 15]: 100 | Plant response rating, Ryegrass, Italian [8, 16]: 100 | Plant response rating, Ryegrass, Italian [8, 17]: 100 | Plant response rating, Ryegrass, Italian [8, 18]: 90 | Plant response rating, Ryegrass, Italian [8, 19]: 100 | Plant response rating, Ryegrass, Italian [8, 20]: 100 | Plant response rating, Ryegrass, Italian [8, 21]: 100 | Plant response rating, Nightshade, E. B. ([9]; 31 g ai/ha, 0 to 100 scale, 0 no effect, 100 complete control): 0 | Plant response rating, Nightshade, E. B. ([9]; 125 g ai/ha, scale 0 to 100): 90 | Plant response rating, Nightshade, E. B. ([9]; 250 g ai/ha, scale 0 to 100): 90

Cc1cc(-c2ccc(Br)cc2)nn1-c1c(O)cnn(C)c1=O [Compound 4]
Plant response rating, Wheat [1, 10]: 60 | Plant response rating, Wheat [1, 11]: 80 | Plant response rating, Wheat [1, 12]: 70 | Plant response rating, Wheat [1, 13]: 100 | Plant response rating, Cocklebur [2, 14]: 0 | Plant response rating, Cocklebur [2, 15]: 0 | Plant response rating, Cocklebur [2, 16]: 0 | Plant response rating, Cocklebur [2, 17]: 0 | Plant response rating, Cocklebur [2, 18]: 0 | Plant response rating, Cocklebur [2, 19]: 0 | Plant response rating, Cocklebur [2, 20]: 0 | Plant response rating, Cocklebur [2, 21]: 30 | Plant response rating, Pigweed [3, 14]: 0 | Plant response rating, Pigweed [3, 15]: 0 | Plant response rating, Pigweed [3, 16]: 35 | Plant response rating, Pigweed [3, 17]: 50 | Plant response rating, Pigweed [3, 21]: 0 | Plant response rating, Soybean (soybean (Glycine max); [14]): 20 | Plant response rating, Soybean (soybean (Glycine max); [15]): 30 | Plant response rating, Soybean (soybean (Glycine max); [16]): 90 | Plant response rating, Soybean (soybean (Glycine max); [17]): 90 | Plant response rating, Soybean (soybean (Glycine max); [18]): 0 | Plant response rating, Soybean (soybean (Glycine max); [19]): 0 | Plant response rating, Soybean (soybean (Glycine max); [20]): 0 | Plant response rating, Soybean (soybean (Glycine max); [21]): 20 | Plant response rating, Ragweed [4, 14]: 0 | Plant response rating, Ragweed [4, 15]: 0 | Plant response rating, Ragweed [4, 16]: 50 | Plant response rating, Ragweed [4, 17]: 80 | Plant response rating, Ragweed [4, 18]: 0 | Plant response rating, Ragweed [4, 19]: 0 | Plant response rating, Ragweed [4, 20]: 0 | Plant response rating, Ragweed [4, 21]: 0 | Plant response rating, Goosegrass [5, 14]: 95 | Plant response rating, Goosegrass [5, 15]: 100 | Plant response rating, Goosegrass [5, 16]: 100 | Plant response rating, Goosegrass [5, 17]: 100 | Plant response rating, Goosegrass [5, 18]: 85 | Plant response rating, Goosegrass [5, 19]: 100 | Plant response rating, Goosegrass [5, 20]: 100 | Plant response rating, Goosegrass [5, 21]: 100 | Plant response rating, Kochia (kochia (Kochia scoparia); [14]): 0 | Plant response rating, Kochia (kochia (Kochia scoparia); [15]): 0 | Plant response rating, Kochia (kochia (Kochia scoparia); [16]): 60 | Plant response rating, Kochia (kochia (Kochia scoparia); [17]): 70 | Plant response rating, Kochia (kochia (Kochia scoparia); [18]): 0 | Plant response rating, Kochia (kochia (Kochia scoparia); [20]): 0 | Plant response rating, Kochia (kochia (Kochia scoparia); [21]): 0 | Plant response rating, Nutsedge, Yellow [6, 14]: 0 | Plant response rating, Nutsedge, Yellow [6, 15]: 0 | Plant response rating, Nutsedge, Yellow [6, 16]: 0 | Plant response rating, Nutsedge, Yellow [6, 17]: 0 | Plant response rating, Nutsedge, Yellow [6, 18]: 0 | Plant response rating, Nutsedge, Yellow [6, 19]: 0 | Plant response rating, Nutsedge, Yellow [6, 20]: 0 | Plant response rating, Cupgrass, Woolly [7, 14]: 100 | Plant response rating, Cupgrass, Woolly [7, 15]: 100 | Plant response rating, Cupgrass, Woolly [7, 16]: 100 | Plant response rating, Cupgrass, Woolly [7, 17]: 100 | Plant response rating, Cupgrass, Woolly [7, 18]: 85 | Plant response rating, Cupgrass, Woolly [7, 19]: 85 | Plant response rating, Cupgrass, Woolly [7, 20]: 100 | Plant response rating, Cupgrass, Woolly [7, 21]: 100 | Plant response rating, Ryegrass, Italian [8, 14]: 100 | Plant response rating, Ryegrass, Italian [8, 15]: 100 | Plant response rating, Ryegrass, Italian [8, 16]: 100 | Plant response rating, Ryegrass, Italian [8, 17]: 100 | Plant response rating, Ryegrass, Italian [8, 18]: 100 | Plant response rating, Ryegrass, Italian [8, 19]: 100 | Plant response rating, Ryegrass, Italian [8, 20]: 100 | Plant response rating, Ryegrass, Italian [8, 21]: 100 | Plant response rating, Nightshade, E. B. ([9]; 250 g ai/ha, scale 0 to 100): 80

— patent US20100267561A1, “HERBICIDAL PYRIDAZINONE DERIVATIVES” (priority 2007, published 2010)
